From US6391827B1, “Pyrrolic compounds having a high herbicidal activity and their agronomic use” (Isagro Ricerca S.r.l., priority 1999, dated 2002)

Assays:
Format in all cases: in vivo
Set-up in all cases: key: 0=0-20% of damage; 1=21-40%; 2=41-60%; 3=61-80%; 4=81-95%; 5=death of the plant treated
Details in all cases: 150 g/hectare, evaluated 21 days after treatment, damage vs blank
[1] = tested on: Amarantus retraflexus (AR); assay: Herbicidal activity in post-emergence, Amarantus retraflexus
Protocol: (§1) The herbicidal activity of the compounds of the invention was evaluated with respect to both monocotyledon and dicotyledon weeds, in post- and pre-emergence treatment.
(§2) The evaluation tests were carried out according to the following operative procedures.
(§3) Vases (diameter over 10 cm, height 10 cm) containing sandy medium were prepared. One of the following weeds was planted in each of them: Abutilon theofrasti (AT), Amarantus retraflexus (AR), Chenopodium album (CA), Convolvulus sepium (CS), Portulaca oleracea (PO), Solanum nigrum (SN), Ipomea purpurea (IP).
(§4) Water was added to each vase in a suitable quantity for a good germination of the seeds. The vases were divided into two groups, each group containing at least 5 vases for each weed.
(§5) The first group was not treated with herbicide and was used as a comparison (blank).
(§6) The second group of vases was treated fifteen days after sowing (i.e. when the small weed plants, depending on the species, were 10-15 cm high) with a hydroacetone dispersion at 20% by volume of acetone of the product to be evaluated (herbicidal activity in post-emergence). All the vases were kept under observation in a conditioned environment under the following environmental conditions:
(§7) light intensity: 10000 lux
(§8) Every two days, the vases were uniformly watered to ensure a sufficient degree of humidity for a good development of the plants.
(§9) 21 days after treatment, the herbicidal activity was evaluated on the basis of the following scale of values referring to the percentage of damage measured on the treated plants with respect to those not treated (blank): […]

Convolvulus sepium (CS) = assay: Herbicidal activity in post-emergence, Convolvulus sepium
Protocol: as §1, §2, §3, §4, §5, §6, §7, §8, §9

Portulaca oleracea (PO) = assay: Herbicidal activity in post-emergence, Portulaca oleracea
Protocol: as §1, §2, §3, §4, §5, §6, §7, §8, §9

Chenopodium album (CA) = assay: Herbicidal activity in post-emergence, Chenopodium album
Protocol: as §1, §2, §3, §4, §5, §6, §7, §8, §9

Abutilon theofrasti (AT) = assay: Herbicidal activity in post-emergence, Abutilon theofrasti
Protocol: as §1, §2, §3, §4, §5, §6, §7, §8, §9

Solanum nigrum (SN) = assay: Herbicidal activity in post-emergence, Solanum nigrum
Protocol: as §1, §2, §3, §4, §5, §6, §7, §8, §9

Ipomea purpurea (IP) = assay: Herbicidal activity in post-emergence, Ipomea purpurea
Protocol: as §1, §2, §3, §4, §5, §6, §7, §8, §9

CCOC(=O)COc1cc(-c2c(Br)c(C(F)(F)F)n(C)c2Cl)c(F)cc1Cl [Compound 18, ethyl-5-(4-bromo-2-chloro-1-methyl-5-trifluoromethylpyrrol-3-yl)-2-chloro-4-fluorophenoxyacetate]
5: Herbicidal activity in post-emerqence, AR [1] | Herbicidal activity in post-emerqence, CS (Convolvulus sepium (CS)) | Herbicidal activity in post-emerqence, PO (Portulaca oleracea (PO)) | Herbicidal activity in post-emerqence, CA (Chenopodium album (CA)) | Herbicidal activity in post-emerqence, AT (Abutilon theofrasti (AT)) | Herbicidal activity in post-emerqence, SN (Solanum nigrum (SN)) | Herbicidal activity in post-emerqence, IP (Ipomea purpurea (IP))

C#CCOc1cc(-c2c(Cl)c(C(F)(F)F)n(C)c2Cl)c(F)cc1Cl [Compound 14, 3-[4-chloro-2-fluoro-5-(2-propinyloxy)phenyl]-2,4-dichloro-1-methyl-5-trifluoromethyl pyrrole]
5: Herbicidal activity in post-emerqence, AR [1] | Herbicidal activity in post-emerqence, CS (Convolvulus sepium (CS)) | Herbicidal activity in post-emerqence, PO (Portulaca oleracea (PO)) | Herbicidal activity in post-emerqence, CA (Chenopodium album (CA)) | Herbicidal activity in post-emerqence, AT (Abutilon theofrasti (AT)) | Herbicidal activity in post-emerqence, SN (Solanum nigrum (SN)) | Herbicidal activity in post-emerqence, IP (Ipomea purpurea (IP))

CCOC(=O)COc1cc(-c2c(Cl)c(C(F)(F)F)n(C)c2Cl)c(F)cc1Cl [Compound 15, ethyl [2-chloro-5-(2,4-dichloro-1-methyl-5-trifluoro methylpyrrol-3-yl)-4-fluorophenoxy]acetate]
5: Herbicidal activity in post-emerqence, AR [1] | Herbicidal activity in post-emerqence, CS (Convolvulus sepium (CS)) | Herbicidal activity in post-emerqence, PO (Portulaca oleracea (PO)) | Herbicidal activity in post-emerqence, CA (Chenopodium album (CA)) | Herbicidal activity in post-emerqence, AT (Abutilon theofrasti (AT)) | Herbicidal activity in post-emerqence, SN (Solanum nigrum (SN)) | Herbicidal activity in post-emerqence, IP (Ipomea purpurea (IP))

C#CCOc1cc(-c2c(Br)c(C(F)(F)F)n(C)c2Br)c(F)cc1Cl [Compound 5, 3-[4-chloro-2-fluoro-5-(2-propinyloxy)phenyl]-2,4-dibromo-1-methyl-5-trifluoromethylpyrrole]
5: Herbicidal activity in post-emerqence, AR [1] | Herbicidal activity in post-emerqence, CS (Convolvulus sepium (CS)) | Herbicidal activity in post-emerqence, PO (Portulaca oleracea (PO)) | Herbicidal activity in post-emerqence, CA (Chenopodium album (CA)) | Herbicidal activity in post-emerqence, AT (Abutilon theofrasti (AT)) | Herbicidal activity in post-emerqence, SN (Solanum nigrum (SN)) | Herbicidal activity in post-emerqence, IP (Ipomea purpurea (IP))

C#CCOc1cc(-c2c(Br)c(C(F)(F)F)n(C)c2Cl)c(F)cc1Cl [Compound 17, 4-bromo-3-[4-chloro-2-fluoro-5-(2-propinyloxy)phenyl]-2-chloro-1-methyl-5-trifluoromethyl pyrrole]
5: Herbicidal activity in post-emerqence, AR [1] | Herbicidal activity in post-emerqence, CS (Convolvulus sepium (CS)) | Herbicidal activity in post-emerqence, PO (Portulaca oleracea (PO)) | Herbicidal activity in post-emerqence, CA (Chenopodium album (CA)) | Herbicidal activity in post-emerqence, AT (Abutilon theofrasti (AT)) | Herbicidal activity in post-emerqence, SN (Solanum nigrum (SN)) | Herbicidal activity in post-emerqence, IP (Ipomea purpurea (IP))

CCOC(=O)COc1cc(-c2c(Br)c(C(F)(F)F)n(C)c2Br)c(F)cc1Cl [Compound 4, ethyl 2-chloro-5-(2,4-dibromo-1-methyl-5-trifluoromethylpyrrol-3-yl)-4-fluorophenoxy acetate]
5: Herbicidal activity in post-emerqence, AR [1] | Herbicidal activity in post-emerqence, CS (Convolvulus sepium (CS)) | Herbicidal activity in post-emerqence, PO (Portulaca oleracea (PO)) | Herbicidal activity in post-emerqence, CA (Chenopodium album (CA)) | Herbicidal activity in post-emerqence, AT (Abutilon theofrasti (AT)) | Herbicidal activity in post-emerqence, SN (Solanum nigrum (SN)) | Herbicidal activity in post-emerqence, IP (Ipomea purpurea (IP))
